Experimental data as given in patent EP0174458A1, “Use of 4H-1,4 benzothiazines in the prophylaxis and therapy of diseases of the breath ways, inflammations, rheumatisms, thromboembolic diseases, ischemia and infarctus, heart rhythm disorders, arteriosclerosis and dermatosis, therapeutic agents for this purpose and reactive compounds which are …” (BAYER AG, priority 1984, dated 1986).

Assays:
5-Lipoxygenase = target: T1, 5-Lipoxygenase (Homo sapiens, UniProt P09917); assay: cell-based
T1 sequence (P09917 1-674): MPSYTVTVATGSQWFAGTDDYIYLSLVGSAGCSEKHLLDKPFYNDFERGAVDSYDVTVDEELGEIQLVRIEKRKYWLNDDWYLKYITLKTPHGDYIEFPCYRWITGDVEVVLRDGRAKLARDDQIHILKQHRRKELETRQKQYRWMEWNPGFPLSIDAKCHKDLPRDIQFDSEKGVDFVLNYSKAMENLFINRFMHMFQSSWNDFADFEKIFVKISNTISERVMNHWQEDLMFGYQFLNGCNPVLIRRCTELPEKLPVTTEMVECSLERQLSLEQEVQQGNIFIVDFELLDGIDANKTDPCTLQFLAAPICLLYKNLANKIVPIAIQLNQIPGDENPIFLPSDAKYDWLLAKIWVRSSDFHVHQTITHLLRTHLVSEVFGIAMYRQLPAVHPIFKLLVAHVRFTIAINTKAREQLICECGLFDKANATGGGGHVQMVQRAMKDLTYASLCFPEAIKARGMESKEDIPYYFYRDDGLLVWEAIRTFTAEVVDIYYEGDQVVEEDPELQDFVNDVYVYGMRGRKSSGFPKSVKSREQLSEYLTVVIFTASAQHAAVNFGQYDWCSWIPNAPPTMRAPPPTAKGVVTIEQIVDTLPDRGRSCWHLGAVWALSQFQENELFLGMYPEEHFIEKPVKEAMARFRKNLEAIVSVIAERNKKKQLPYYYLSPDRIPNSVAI
Excerpt: Die Hemmung der Freisetzung von 5-HETE und Leukotrien B4 aus den Leukozyten stellt ein Maß für den lipoxygenasehemmenden Effekt der erfindungsgemäßen Verbindungen dar.
Der Test mit den Humanleukozyten wurde nach Borgeat und Samuelsson (J. Biol. Chem. 254, 2643, 1979 und Proc. Natl. Acad. Sci. USA, 76, 2148, 1979) durchgeführt.
Die im vorliegenden Beispiel verwendeten Human PMN-Leukozyten (w95 %) wurden aus heparinisiertem Vollblut durch eine Dextran-Sedimentation und anschließende Dichtegradiententrennung (Ficoll-Paque) gewonnen (vgl. A. Boyum, Scand. J. Immunol., 5, Suppl 5, 9, 1976).
2 x 10^7 Zellen/ml wurden in Ca2+-haltigem Dulbecco-Phosphat-Puffer suspendiert und in Anwesenheit bzw. Abwesenheit von Lipoxygenasehemmer mit dem Calcium-Ionophor A 23187 stimuliert.
Nach 15 Minuten wurden die Lipoxygenaseprodukte aus dem angesäuerten Inkubationsmedium extrahiert und mittels HPLC getrennt. Die Hochdruckflüssigkeitschromatographie wurde auf Lichrosorb RP-18(5 µm)-Säulen durchgeführt. Das Laufmittel war Methanol/Wasser/Eisessig 69/ 31/0.01. Die Flußrate betrug 1 ml/min. Leukotrien B4 wurde bei 280 nm, die HETE-Derivate bei 232 nm mittels der UV-Absorption bestimmt.

[1] = tested on: durch Arachidonsäure induzierten Thromboembolie; assay: Protection against arachidonic acid induced thromboembolism; type: in vivo; conditions: 100 mg/kg p.o., Kaninchen, 1,5 mg/kg Na-arachidonat
Experimental: In diesem Modell wirken Substanzen, die mit der Prostaglandin- und Thromboxanbiosynthese interferieren. Kaninchen werden 1,5 mg/kg Na-arachidonat in eine marginale Ohrvene injiziert. Die Tiere sterben innerhalb von Minuten, vermutlich aufgrund vasospastischer Cyclooxygenase- und Lipoxygenaseprodukte sowie embolisierender Plättchenthromben. Vorbehandlung mit den erfindungsgemäßen Verbindungen schützt die Tiere, so daß diese überleben. Literatur: Silver, M.J. et al., Science 183, 1085, 1974 Seuter, F., Busse, W.D., Agents and Actions, Suppl. 4, 175, 1979.

Prostacyclin (PGI2) = assay: Prostacyclin stimulation in aortic rings ex vivo; conditions: 30 mg/kg p.o., Ratten
Experimental: Aortenringe von mit Prüfsubstanzen vorbehandelten Ratten werden 10 Minuten bei 37°C in Trispuffer (pH 7,8) inkubiert. Das sich bildende Prostacyclin wird nach Umwandlung zu dem stabilen 6-Keto-PGF radioimmunologisch bestimmt. Literatur: Mc Intyre, D.E., Salzman, E.W., Thrombos. Haemostas. 46, 19, 1981. Seuter, F. et al., 6th International Symposium on Atherosclerosis, Abstr. 270, Berlin 1982.

Which IC50 (5-Lipoxygenase) does the source give for `CC(C(=O)O)c1ccc2oc(-c3ccc(Cl)cc3)nc2c1` (stereo not shown) [Benoxaprofen] here?
The IC50 was 33.1 to 166 µM.

With `O=C1CCCC2=C1Sc1ccccc1N2` [Herstellungs-beispiel 16] as the molecule, how does the Überlebensrate % [1] read?
Its Überlebensrate % is 66,6%.

`CSCCOC(=O)C1=C(C)Nc2ccccc2S1` [Herstellungsbeispiel 7] was tested. Which “Fähigkeit von Aortenringen Prostacyclin zu synthetisieren” value (Prostacyclin (PGI2)) did it give?
The value was “erhöht”.

With `CC(Cc1ccc(O)c(O)c1)C(C)Cc1ccc(O)c(O)c1` (stereo not shown) [NDGA, Nordihydroguaretsäure] as the molecule, how does the inhibition at 0.5 µg/mL (5-Lipoxygenase; 0.25 h, read-out: Hemmung) read?
Its inhibition at 0.5 µg/mL is ~50%.
